Numbered stars: 1 amine (or outer) side, 2 acyl side, 3 side chain; on linkers, the order of the positions; unused ones are H or OH. Bridge positions count the residues as written; N and C are the ends. Peptide text beside a SMILES is read from it. I, II: the chains in the order shown. * marks the point of attachment. X2 = CC1(C)C(/C=C/C=C/C=C/C=C2/N(CCC(=O)[*:1])c3ccc4ccccc4c3C2(C)C)=[N+](CCC(=O)[*:2])c2ccc3ccccc3c21; X1 = CC1(C)C(/C=C/C=C/C=C/C=C2/N(CCC(=O)[*:1])c3ccc4ccccc4c3C2(C)C)=[N+](CC(=O)[*:2])c2ccc3ccccc3c21; Cypate = CC1(C)C(/C=C/C=C/C=C/C=C2/N(CCC(=O)*)c3ccc4ccccc4c3C2(C)C)=[N+](CCC(=O)O)c2ccc3ccccc3c21; X3 = CC1(C)C(/C=C/C=C/C=C/C=C2/N(CCC(=O)O)c3ccc4ccccc4c3C2(C)C)=[N+](CC(=O)*)c2ccc3ccccc3c21

The target of this assay is Integrin alpha-V/beta-3 (Homo sapiens, UniProt P05106+P06756). Briefly: Displacement of [125I]echistatin from AlphaV-beta-3 integrin receptor. In kind it is protein-complex assay.
Sequence of Integrin alpha-V/beta-3 (P05106 27-788 limits assumed): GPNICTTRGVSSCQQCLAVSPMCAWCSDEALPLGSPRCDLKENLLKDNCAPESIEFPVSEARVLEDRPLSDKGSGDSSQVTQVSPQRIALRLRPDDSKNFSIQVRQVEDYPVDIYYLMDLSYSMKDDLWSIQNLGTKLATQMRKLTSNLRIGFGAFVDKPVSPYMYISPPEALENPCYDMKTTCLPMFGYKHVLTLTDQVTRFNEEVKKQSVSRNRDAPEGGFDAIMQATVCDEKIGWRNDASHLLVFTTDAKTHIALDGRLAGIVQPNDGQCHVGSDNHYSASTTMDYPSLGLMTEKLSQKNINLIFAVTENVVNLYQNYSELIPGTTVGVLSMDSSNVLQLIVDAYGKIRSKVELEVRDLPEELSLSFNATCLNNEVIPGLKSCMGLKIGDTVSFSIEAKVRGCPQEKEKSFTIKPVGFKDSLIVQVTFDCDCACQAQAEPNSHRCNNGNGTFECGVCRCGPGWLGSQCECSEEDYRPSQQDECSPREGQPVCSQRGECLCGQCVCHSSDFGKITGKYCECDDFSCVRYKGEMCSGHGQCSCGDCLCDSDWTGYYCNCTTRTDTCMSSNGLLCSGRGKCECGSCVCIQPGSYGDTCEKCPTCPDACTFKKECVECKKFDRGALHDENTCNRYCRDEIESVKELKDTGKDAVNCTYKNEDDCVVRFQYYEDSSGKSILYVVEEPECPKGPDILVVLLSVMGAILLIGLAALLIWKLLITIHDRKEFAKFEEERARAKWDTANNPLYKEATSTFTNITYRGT
Sequence of Integrin alpha-V/beta-3 (P06756 31-889 limits assumed): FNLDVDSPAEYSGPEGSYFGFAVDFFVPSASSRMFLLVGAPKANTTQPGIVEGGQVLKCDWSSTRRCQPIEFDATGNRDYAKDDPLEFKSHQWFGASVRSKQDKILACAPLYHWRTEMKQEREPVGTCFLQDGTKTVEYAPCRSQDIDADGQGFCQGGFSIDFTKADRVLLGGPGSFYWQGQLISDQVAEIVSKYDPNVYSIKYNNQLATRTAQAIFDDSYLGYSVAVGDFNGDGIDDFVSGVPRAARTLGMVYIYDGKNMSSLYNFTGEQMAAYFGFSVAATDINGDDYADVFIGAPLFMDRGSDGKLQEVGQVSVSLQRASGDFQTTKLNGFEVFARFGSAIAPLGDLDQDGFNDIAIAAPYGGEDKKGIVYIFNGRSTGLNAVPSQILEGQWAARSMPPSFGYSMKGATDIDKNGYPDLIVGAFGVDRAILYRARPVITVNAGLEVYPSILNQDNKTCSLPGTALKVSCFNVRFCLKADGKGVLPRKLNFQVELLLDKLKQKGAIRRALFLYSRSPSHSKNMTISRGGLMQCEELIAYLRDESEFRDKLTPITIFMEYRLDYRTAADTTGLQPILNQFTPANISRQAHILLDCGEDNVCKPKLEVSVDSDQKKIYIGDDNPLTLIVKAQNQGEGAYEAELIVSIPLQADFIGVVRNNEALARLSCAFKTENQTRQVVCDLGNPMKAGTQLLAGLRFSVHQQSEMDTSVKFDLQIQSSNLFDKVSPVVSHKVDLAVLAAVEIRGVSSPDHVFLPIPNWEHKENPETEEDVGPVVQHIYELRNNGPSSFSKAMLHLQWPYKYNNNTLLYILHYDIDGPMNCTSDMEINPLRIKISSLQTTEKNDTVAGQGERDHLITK
Sequence of Integrin alpha-V/beta-3 (P06756 891-1048 limits assumed): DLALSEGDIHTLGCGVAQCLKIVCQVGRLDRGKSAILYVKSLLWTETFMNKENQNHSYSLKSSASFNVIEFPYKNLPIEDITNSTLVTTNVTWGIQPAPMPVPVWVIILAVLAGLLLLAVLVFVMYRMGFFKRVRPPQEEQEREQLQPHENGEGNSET
What is called IC50 is the concentration that gives 50% inhibition. A higher IC50 goes with weaker potency in that assay. `CC1(C)C(/C=C/C=C/C=C/C=C2/N(CCC(=O)NCCCC[C@@H]3NC(=O)[C@@H](Cc4ccccc4)NC(=O)[C@H](CC(=O)O)NC(=O)CNC(=O)[C@H](CCCNC(=N)N)NC3=O)c3ccc4ccccc4c3C2(C)C)=[N+](CCC(=O)O)c2ccc3ccccc3c21` yielded a concentration for half-maximal inhibition (IC50) of 63.9 nM.

Regarding `CC1(C)C(/C=C/C=C/C=C/C=C2/N(CCC(=O)N[C@@H](CCCN=C(N)N)C(=O)NCC(=O)N[C@@H](CC(=O)O)C(=O)N[C@@H](CCCN=C(N)N)C(=O)NCC(=O)N[C@@H](CC(=O)O)C(N)=O)c3ccc4ccccc4c3C2(C)C)=[N+](CC(=O)N[C@@H](CCCN=C(N)N)C(=O)NCC(=O)N[C@@H](CC(=O)O)C(=O)N[C@@H](CCCN=C(N)N)C(=O)NCC(=O)N[C@@H](CC(=O)O)C(N)=O)c2ccc3ccccc3c21`, the IC50 was 104 nM.

`CC1(C)C(/C=C/C=C/C=C/C=C2/N(CCC(=O)O)c3ccc4ccccc4c3C2(C)C)=[N+](CC(=O)N[C@@H](CCCN=C(N)N)C(=O)NCC(=O)N[C@@H](CC(=O)O)C(=O)N[C@@H](CCCN=C(N)N)C(=O)NCC(=O)N[C@@H](CC(=O)O)C(N)=O)c2ccc3ccccc3c21` came in with an IC50 of 730 nM.

As to `CC1(C)C(/C=C/C=C/C=C/C=C2/N(CCC(=O)N[C@@H](CCCN=C(N)N)C(=O)NCC(=O)N[C@@H](CC(=O)O)C(=O)N[C@@H](CCCN=C(N)N)C(=O)NCC(=O)N[C@@H](CC(=O)O)C(=O)N[C@@H](CCCN=C(N)N)C(=O)NCC(=O)N[C@@H](CC(=O)O)C(=O)N[C@@H](CCCN=C(N)N)C(=O)NCC(=O)N[C@@H](CC(=O)O)C(N)=O)c3ccc4ccccc4c3C2(C)C)=[N+](CCC(=O)O)c2ccc3ccccc3c21` (Cypate-RGDRGDRGDRGD-NH2), the 50% inhibitory concentration (IC50) stood at 259 nM.

Molecule `CC1(C)C(/C=C/C=C/C=C/C=C2/N(CCC(=O)N[C@@H](CCCN=C(N)N)C(=O)NCC(=O)N[C@@H](CC(=O)O)C(=O)N[C@@H](CCCN=C(N)N)C(=O)NCC(=O)N[C@@H](CC(=O)O)C(=O)N[C@@H](CCCN=C(N)N)C(=O)NCC(=O)N[C@@H](CC(=O)O)C(N)=O)c3ccc4ccccc4c3C2(C)C)=[N+](CC(=O)N[C@@H](CCCN=C(N)N)C(=O)NCC(=O)N[C@@H](CC(=O)O)C(=O)N[C@@H](CCCN=C(N)N)C(=O)NCC(=O)N[C@@H](CC(=O)O)C(=O)N[C@@H](CCCN=C(N)N)C(=O)NCC(=O)N[C@@H](CC(=O)O)C(N)=O)c2ccc3ccccc3c21` (I: RGDRGDRGD-NH2 / II: RGDRGDRGD-NH2; linker I:N-II:N via X1) had an IC50 of 132 nM.

Molecule `CC1(C)C(/C=C/C=C/C=C/C=C2/N(CCC(=O)N[C@@H](CCCN=C(N)N)C(=O)NCC(=O)N[C@@H](CC(=O)O)C(=O)N[C@@H](CCCN=C(N)N)C(=O)NCC(=O)N[C@@H](CC(=O)O)C(=O)N[C@@H](CCCN=C(N)N)C(=O)NCC(=O)N[C@@H](CC(=O)O)C(=O)N[C@@H](CCCN=C(N)N)C(=O)NCC(=O)N[C@@H](CC(=O)O)C(N)=O)c3ccc4ccccc4c3C2(C)C)=[N+](CCC(=O)N[C@@H](CCCN=C(N)N)C(=O)NCC(=O)N[C@@H](CC(=O)O)C(=O)N[C@@H](CCCN=C(N)N)C(=O)NCC(=O)N[C@@H](CC(=O)O)C(=O)N[C@@H](CCCN=C(N)N)C(=O)NCC(=O)N[C@@H](CC(=O)O)C(=O)N[C@@H](CCCN=C(N)N)C(=O)NCC(=O)N[C@@H](CC(=O)O)C(N)=O)c2ccc3ccccc3c21` (I: RGDRGDRGDRGD-NH2 / II: RGDRGDRGDRGD-NH2; linker I:N-II:N via X2) gave an IC50 of 79.6 nM.

For the molecule `CC1(C)C(/C=C/C=C/C=C/C=C2/N(CCC(=O)O)c3ccc4ccccc4c3C2(C)C)=[N+](CC(=O)N[C@@H](CCCN=C(N)N)C(=O)NCC(=O)N[C@@H](CC(=O)O)C(=O)N[C@@H](CCCN=C(N)N)C(=O)NCC(=O)N[C@@H](CC(=O)O)C(=O)N[C@@H](CCCN=C(N)N)C(=O)NCC(=O)N[C@@H](CC(=O)O)C(N)=O)c2ccc3ccccc3c21` (X3-RGDRGDRGD-NH2), the IC50 turned out to be 481 nM.

These data come from ChEMBL document CHEMBL1146086, “Design, synthesis, and evaluation of near infrared fluorescent multimeric RGD peptides for targeting tumors” (J Med Chem, 2006).
